Results as given in patent publication US20010021697A1, “METHODS AND COMPOSITIONS FOR THE TREATMENT OF MAMMALIAN INFECTIONS EMPLOYING MEDICAMENTS COMPRISING HYMENOPTERA VENOM, PROTEINAGEOUS OR POLYPEPTIDE COMPONENTS THEREOF, OR ANALOGUES OF SUCH PROTEINACEOUS OR POLYPEPTIDE COMPONENTS” (priority 1987, published 2001).
Where “and” joins values, the source holds several entries; their conditions need not be identical. Equal values may be shown once. Read-outs that look alike come from different tables or passages of the source.

Assays:
Format in all cases: cell-based
[1] = tested on: Staphylococcus aureus; details: Venom 4 ug/ml; for optical density, AVERAGE: AVERAGE line; for optical density: single replicates
[2] = tested on: Pseudomonas aeruginosa; details: Venom 40 ug/ml; for optical density, AVERAGE: AVERAGE line; for optical density: single replicates
[3] = tested on: S. aureus; experiment: Equivalent doses of melittin fraction and whole honeybee venom with and without kanamycin (growth curves); details: doses of what is present: KANA = 2.5, MEL = 1.6, HBV = 2 (ug/ml)
[4] = tested on: kanamycin resistant S. aureus; experiment: Checkerboard titration assay for synergy of honeybee venom with antibiotics (OD660 growth curves)
[5] = 0 hours after innoculation, doses of what is present: Rifampicin .001 ug/ml
[6] = 0 hours after innoculation, doses of what is present: Rifampicin .01 ug/ml
[7] = 2 hours after innoculation, doses of what is present: Rifampicin .001 ug/ml
[8] = 2 hours after innoculation, doses of what is present: Rifampicin .01 ug/ml
[9] = 4 hours after innoculation, doses of what is present: Rifampicin .001 ug/ml
[10] = 4 hours after innoculation, doses of what is present: Rifampicin .01 ug/ml
[11] = 6 hours after innoculation, doses of what is present: Rifampicin .001 ug/ml
[12] = 6 hours after innoculation, doses of what is present: Rifampicin .01 ug/ml
[13] = 8 hours after innoculation, doses of what is present: Rifampicin .001 ug/ml
[14] = 8 hours after innoculation, doses of what is present: Rifampicin .01 ug/ml
[15] = 12 hours after innoculation, doses of what is present: Rifampicin .001 ug/ml
[16] = 12 hours after innoculation, doses of what is present: Rifampicin .01 ug/ml
[17] = 0 hours after innoculation, doses of what is present: Rifampicin 10 ug/ml
[18] = 0 hours after innoculation, doses of what is present: Rifampicin 20 ug/ml
[19] = 2 hours after innoculation, doses of what is present: Rifampicin 10 ug/ml
[20] = 2 hours after innoculation, doses of what is present: Rifampicin 20 ug/ml
[21] = 4 hours after innoculation, doses of what is present: Rifampicin 10 ug/ml
[22] = 4 hours after innoculation, doses of what is present: Rifampicin 20 ug/ml
[23] = 6 hours after innoculation, doses of what is present: Rifampicin 10 ug/ml
[24] = 6 hours after innoculation, doses of what is present: Rifampicin 20 ug/ml
[25] = 8 hours after innoculation, doses of what is present: Rifampicin 10 ug/ml
[26] = 8 hours after innoculation, doses of what is present: Rifampicin 20 ug/ml
[27] = 12 hours after innoculation, doses of what is present: Rifampicin 10 ug/ml
[28] = 12 hours after innoculation, doses of what is present: Rifampicin 20 ug/ml

SMILES: CO[C@H]1/C=C/O[C@@]2(C)Oc3c(C)c(O)c4c(O)c(c(/C=N/N5CCN(C)CC5)c(O)c4c3C2=O)NC(=O)/C(C)=C\C=C\[C@H](C)[C@H](O)[C@@H](C)[C@@H](O)[C@@H](C)[C@H](OC(C)=O)[C@@H]1C [Rifampicin]
- optical density, AVERAGE [1, 5]: .046
- optical density [1, 5]: .046
- optical density, AVERAGE [1, 6]: .046
- optical density [1, 6]: .046
- optical density, AVERAGE [1, 7]: .072
- optical density [1, 7]: .081 (2×) and .072
- optical density, AVERAGE [1, 8]: .056
- optical density [1, 8]: .056 and .054 and .058
- optical density, AVERAGE [1, 9]: .807
- optical density [1, 9]: .855 and .765 and .800
- optical density, AVERAGE [1, 10]: .107
- optical density [1, 10]: .140 and .068 and .112
- optical density, AVERAGE [1, 11]: 1.17
- optical density [1, 11]: 1.18 and 1.16 and 1.17
- optical density, AVERAGE [1, 12]: .277
- optical density [1, 12]: .372 and .156 and .304
- optical density, AVERAGE [1, 13]: 1.26
- optical density [1, 13]: 1.27 and 1.26 (2×)
- optical density, AVERAGE [1, 14]: .898
- optical density [1, 14]: 1.07 and .625 and 1.00
- optical density, AVERAGE [1, 15]: 1.34
- optical density [1, 15]: 1.34
- optical density, AVERAGE [1, 16]: 1.32
- optical density [1, 16]: 1.32 and 1.34 and 1.30
- optical density, AVERAGE [2, 17]: .033
- optical density [2, 17]: .033
- optical density, AVERAGE [2, 18]: .033
- optical density [2, 18]: .033
- optical density, AVERAGE [2, 19]: .080
- optical density [2, 19]: .074 and .084 and .082
- optical density, AVERAGE [2, 20]: .057
- optical density [2, 20]: .053 and .056 and .063
- optical density, AVERAGE [2, 21]: .647
- optical density [2, 21]: .630 and .672 and .640
- optical density, AVERAGE [2, 22]: .351
- optical density [2, 22]: .375 and .326 and .380
- optical density, AVERAGE [2, 23]: .837
- optical density [2, 23]: .830 (2×) and .850
- optical density, AVERAGE [2, 24]: .688
- optical density [2, 24]: .660 and .645 and .700
- optical density, AVERAGE [2, 25]: .882
- optical density [2, 25]: .885 and .895 and .865
- optical density, AVERAGE [2, 26]: .737
- optical density [2, 26]: .730 and .720 and .760
- optical density, AVERAGE [2, 27]: .841
- optical density [2, 27]: .842 and .850 and .832
- optical density, AVERAGE [2, 28]: .735
- optical density [2, 28]: .730 (2×) and .745

SMILES: NC[C@H]1O[C@H](O[C@H]2[C@H](O)[C@@H](O[C@H]3O[C@H](CO)[C@@H](O)[C@H](N)[C@H]3O)[C@H](N)C[C@@H]2N)[C@H](O)[C@@H](O)[C@@H]1O [Kanamycin]
- MEAN A660 ([3]; T0): 0.021
- MEAN A660 ([3]; T2): 0.080
- MEAN A660 ([3]; T4): 0.692
- MEAN A660 ([3]; T6): 1.114
- MEAN A660 ([3]; T8): 1.217
- MEAN A660 ([3]; T12): 1.265
- MEAN A660 ([3]; T24): 1.330
- MEAN A660 ([4]; KANA = 5, HBV = 0, T0): 0.016
- MEAN A660 ([4]; KANA = 5, HBV = 0, T2): 0.047
- MEAN A660 ([4]; KANA = 5, HBV = 0, T4): 0.204
- MEAN A660 ([4]; KANA = 5, HBV = 0, T6): 0.282
- MEAN A660 ([4]; KANA = 5, HBV = 0, T8): 0.351
- MEAN A660 ([4]; KANA = 5, HBV = 0, T12): 0.751
- MEAN A660 ([4]; KANA = 5, HBV = 0, T24): 1.152
- MEAN A660 ([4]; KANA = 10, HBV = 0, T0): 0.016
- MEAN A660 ([4]; KANA = 10, HBV = 0, T2): 0.047
- MEAN A660 ([4]; KANA = 10, HBV = 0, T4): 0.135
- MEAN A660 ([4]; KANA = 10, HBV = 0, T6): 0.172
- MEAN A660 ([4]; KANA = 10, HBV = 0, T8): 0.200
- MEAN A660 ([4]; KANA = 10, HBV = 0, T12): 0.397
- MEAN A660 ([4]; KANA = 10, HBV = 0, T24): 1.164
- MEAN A660 ([4]; KANA = 20, HBV = 0, T0): 0.016
- MEAN A660 ([4]; KANA = 20, HBV = 0, T2): 0.047
- MEAN A660 ([4]; KANA = 20, HBV = 0, T4): 0.123
- MEAN A660 ([4]; KANA = 20, HBV = 0, T6): 0.145
- MEAN A660 ([4]; KANA = 20, HBV = 0, T8): 0.166
- MEAN A660 ([4]; KANA = 20, HBV = 0, T12): 0.220
- MEAN A660 ([4]; KANA = 20, HBV = 0, T24): 0.975
- MEAN A660 ([4]; KANA = 40, HBV = 0, T0): 0.016
- MEAN A660 ([4]; KANA = 40, HBV = 0, T2): 0.047
- MEAN A660 ([4]; KANA = 40, HBV = 0, T4): 0.116
- MEAN A660 ([4]; KANA = 40, HBV = 0, T6): 0.146
- MEAN A660 ([4]; KANA = 40, HBV = 0, T8): 0.161
- MEAN A660 ([4]; KANA = 40, HBV = 0, T12): 0.184
- MEAN A660 ([4]; KANA = 40, HBV = 0, T24): 0.697
